# Source: patent US11440932B2, “Surfactant compounds-clips for extraction and stabilization in solution of membrane proteins” (CENTRE NATIONAL DE LA RECHERCHE SCIENTIFIQUE, priority 2017, dated 2022)
# Target: T1, BmrA (Bacillus subtilis, UniProt O06967)
# T1 construct: His tag; made in house; host or cells: E. coli C41(DE3)
# Assay: ATPase activity of BmrA after addition of detergents
# Format: biochemical, bacterial; produced in E. coli C41 DE3
# Conditions: at extracting concentrations; relative to protein without compound
# Method: FIG. 7 depicts the effect of the detergents of the invention on the functionality of BmrA (ATPase activity, %). The membrane fraction enriched in BmrA (˜25%) diluted to 2 g/l has the compounds added to it at the concentrations (mM) indicated (panel A, from top to bottom: 3.7e 10.7 mM, 3.7e 8.6 mM, 3.7e 6.4 mM, 3.7e 4.3 mM, 3.7e 2.2 mM, 3.7e 1.1 mM, 3.7d 4 mM, 3.7d 3 mM, 3.7d 2 mM, 3.7d 1 mM, 3.7d 0.8 mM, 3.7d 0.6 mM, 3.7d 0.05 mM, 3.7d 0.03 mM, 3.7d 0.02 mM, 3.7c 13 mM, 3.7c 10.4 mM, 3.7c 10 mM, 3.7b 1.5 mM, 3.7b 0.7 mM, 3.7b 0.5 mM, 2.3gNa2 20.5 mM, 2.3gK2 19.3 mM, 2.3f 21.1 mM, 2.3e 22 mM, 2.3d 23.2 mM, 2.3a 3.2 mM, 1.5a 22 mM, DDM 20 mM, DDM 2 mM, DDM 10 mM, DOM 2 mM, DDM 1 mM, LMNG 10 mM, LMNG 1 mM, LMNG 0.1 mM, LMNG 0.01 mM, FA3 27 mM, FA3 9 mM, FA3 2 mM, FA3 1 mM, TX100 16 mM; panel B from top to bottom: compounds of the invention 5.3d 3.2 mM, 5.3c 3.3 mM, 5.3b 11.7 mM, 5.3b 2.9 mM, 5.3a 3 mM, 4.6c 14.6 mM, 4.6b 15.2 mM, 4.5c 18.6 mM, 4.5b 19.6 mM, 3.9a 8 mM, 3.9a 0.51 mM, 3.9a 0.31 mM, 3.9a 0.11 mM, 3.7l 12.01 mM, 3.7l 6.01 mM, 3.7l 3 mM, 3.7l 1 mM, 3.7k 10 mM, 3.7k 3 mM, 3.7j 3 mM, 3.7j 2 mM, 3.7j 1 mM, 3.7j 0.6 mM, 3.7j 0.03 mM, 3.7j 0.02 mM, 3.7j 1 mM, 3.7i 0.3 mM, 3.7h 3 mM, 3.7h 2 mM, 3.7h 1 mM, 3.7h 0.6 mM, 3.7h 0.58 mM, 3.7h 0.5 mM, 3.7h 0.35 mM, 3.7h 0.1 mM, 3.7h 0.5 mM, 3.7h 0.35 mM, 3.7h 0.1 mM, 3.7h 0.05 mM, 3.7h 0.03 mM, 3.7h 0.02 mM, 3.7g 12.5 mM, 3.7g 9 mM, 3.7g 7.5 mM, 3.7g 5 mM, 3.7g 3 mM, 3.7g 1 mM, 3.7f 3.2 mM, 3.7f 2 mM, 3.7f 1 mM, 3.7f 0.061 mM, 3.7f 0.031 mM, 3.7f 0.015 mM). After incubation for 2 h at 4° C., the ATPase activity is measured. The solutions are subsequently centrifuged for 1 h at 4° C., 100 000×g, and the supernatants deposited on 10% SDS-PAGE (cf. FIG. 8). The gray and black histograms correspond to the concentrations at which BmrA is partially (gray) or entirely (black) extracted, according to these SDS-PAGE. The ATPase activity is in % relative to that of the protein without compound, 0.7 μmol ATP hydrolyzed/min/mg of proteins.
# The molecules of the invention which extract BmrA in the previous example were tested at different sub-solubilizing and solubilizing concentrations, to evaluate their impact on the native and functional state of the protein. The latter is monitored by the hydrolysis of ATP which is carried out by the protein during the transport cycle, coupled with translocation of the solute. As reported previously (Matar-Merheb, R. et al. ([11])), the ATPase activity of BmrA is a highly sensitive marker of the state of the protein, the latter being particularly sensitive to the detergents used during the extraction step, where said detergents replace the lipids on contact with the membrane protein.
# Procedure. BmrA produced and enriched in the plasma membrane of E. coli C41 DE3 is prepared as described previously (Matar-Merheb, R. et al. ([11])). The membranes are diluted at 2 g/l in a 20 mM Tris-HCl buffer, pH 8.0, 100 mM NaCl, 15% glycerol, with protease inhibitors (Roche) added thereto at an amount of one tablet/100 ml. The mixture (T) is incubated for 2 h at 4° C. and the ATPase activity is measured using the coupled-enzyme system, separating off the vanadate-insensitive activity from the total activity, Centeno, F. et al. Expression of the sarcoplasmic reticulum Ca^2+-ATPase in yeast. FEBS Lett 354, 117-122 (1994) ([25])). The solutions are subsequently centrifuged for 1 h at 4° C. at 100 000×g in order to separate the extracted fraction (supernatant, S) from that which is not extracted (pellet). The supernatants are deposited on 10% SDS-PAGE and stained with Coomassie blue after migration (FIG. 8). DDM, LMNG (Chae, P. S. et al. ([6])), TritonX100 and FA3 (Lee, S. C. et al. (2013) ([9])) are tested as reference detergents. The DDM and LMNG originate from Anatrace, the Triton X100 originates from Sigma-Aldrich and the FA3 from Avanti-Polars.
# T1 sequence (O06967 whole entry): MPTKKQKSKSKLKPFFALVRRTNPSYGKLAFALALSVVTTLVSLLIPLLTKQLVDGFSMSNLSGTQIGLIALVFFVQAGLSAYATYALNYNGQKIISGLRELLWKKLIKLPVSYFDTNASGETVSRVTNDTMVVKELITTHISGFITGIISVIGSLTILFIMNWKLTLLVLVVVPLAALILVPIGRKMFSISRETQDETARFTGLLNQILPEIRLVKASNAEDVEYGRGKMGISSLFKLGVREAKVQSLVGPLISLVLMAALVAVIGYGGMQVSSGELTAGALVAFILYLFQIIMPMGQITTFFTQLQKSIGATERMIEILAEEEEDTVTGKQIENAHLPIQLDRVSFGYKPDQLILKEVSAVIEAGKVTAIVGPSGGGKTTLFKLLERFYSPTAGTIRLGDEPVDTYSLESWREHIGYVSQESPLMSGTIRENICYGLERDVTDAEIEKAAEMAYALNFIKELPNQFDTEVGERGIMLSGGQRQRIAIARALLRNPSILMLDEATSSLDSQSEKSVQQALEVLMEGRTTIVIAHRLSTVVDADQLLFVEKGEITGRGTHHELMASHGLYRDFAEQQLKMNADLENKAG
row,Compound,change of the ATPase activity of BmrA on extraction
1,CCCCCCCCCCCC(=O)N[C@@H](COCc1cn(CCO[C@@H]2OC(CO)[C@@H](O)C(O)C2O)nn1)C(=O)N[C@H](CCC(=O)O)C(=O)O (stereo partly drawn) [Compound 3.7b],1.5 ×
2,CCCCCCCCCCCCC(CCCCCCCCCCCC)C(=O)N[C@@H](COCc1cn(CCO[C@@H]2OC(CO)[C@@H](O)C(O)C2O)nn1)C(=O)N[C@H](CCC(=O)O)C(=O)O (stereo partly drawn) [Compound 3.7j],maintaining
3,CCCCCCCCCCCCCC(=O)N[C@@H](COCc1cn(CCO[C@@H]2OC(CO)[C@@H](O)C(O)C2O)nn1)C(=O)N[C@@H](CCC(=O)O)C(=O)NCC(=O)O (stereo partly drawn) [Compound 3.7l],maintaining
4,CCCCCCCCCCCCCC(=O)N[C@@H](COCc1cn(CCO[C@@H]2OC(CO)[C@@H](O[C@H]3OC(CO)[C@@H](O)C(O)C3O)C(O)C2O)nn1)C(=O)N[C@H](CCC(=O)O)C(=O)O (stereo partly drawn) [Compound 3.7e],2 ×
5,CCCCCCCCCCCCCC(=O)N[C@@H](COCc1cn(CCOCCOCCOCCOCCOCCOC)nn1)C(=O)N[C@H](CCC(=O)O)C(=O)O [Compound 3.7g],1.5 ×
6,CCCCCCCCCCCCCC(=O)N[C@@H](COCc1cn(CCO[C@@H]2OC(CO)[C@@H](O)C(O)C2O)nn1)C(=O)N[C@H](CCC(=O)O)C(=O)O (stereo partly drawn) [Compound 3.7c],1.5 ×
